Values quoted from earlier work, collected in US20080286363A1, “Pharmaceutical Compositions for the Treatment of Inflammatory and Obstructive Airways Diseases” (priority 2005, published 2008).

Conditions: aerosol formulation, single administration of a metered dose, asthma

With `C[N+]1(C)CCC(OC(=O)C(O)(c2ccccc2)C2CCCC2)C1.[Br-]` (racemic) [Compound B1, 3-[(Cyclopentyl-hydroxyphenylacetyl)oxy]-1,1-dimethylpyrrolidinium bromide] as the compound, how does the bronchodilation duration read?
Its bronchodilation duration is “up to 12 hours”.
